Data taken from patent US8455397B2, “Penoxsulam as a turfgrass, vineyard and orchard floor herbicide” (Dow AgroSciences, LLC, priority 2005, dated 2013).

System: Hydrocotyle species (HYDSS)
Assay: Post emergent synergy field study, penoxsulam + dicamba granule
Type: in vivo
Settings: 112 gai/Ha on 30-3-4 granule fertilizer, average of 2 studies 4 weeks after application
Procedure: Field and greenhouse studies were conducted to determine if there may be any synergistic response when penoxsulam is combined with other herbicides for post emergence broadleaf or sedge control. Field studies were conducted in established turfgrass sites containing a natural population of target broadleaf weeds. Replicated trials, containing a minimum of three replications and having individual plots ranging in size from 25 to 50 ft. sq (2.3 to 4.6 square meters), were initiated in the late spring when turf and weeds were actively growing. Granule treatments were uniformly applied to individual plots using a common hand-shaker method. Applications were made in the early morning when dew was present. Natural rainfall and supplemental irrigation were used to maintain healthy turf and active weed growth throughout the study period. Control of each weed species in the study site was made at 2, 4 and 8 weeks after treatment. Control was determined visually by comparing treated and untreated weeds and scored on a 0 to 100 percent scale where 0 corresponds to no control and 100 corresponds to complete kill.
Component A was penoxsulam at 0.02 or 0.04 lb ai/A. Component B was dicamba at 0.1 lb ai/A. Individual products and mixture were applied on a 30-3-4 granule fertilizer formulated to deliver 116 pounds fertilizer per acre (129 kg per hectare). Loadings for the individual component on the fertilizer were: • Penoxsulam 22.4 gai/Ha (0.02 lb ai/A)=0.017% • Penoxsulam 44.9 gai/Ha (0.04 lb ai/A)=0.034% • Dicamba 112 gae/Ha (0.1 lb ai/A)=0.086%
For combinations the same loadings were applied to the same granule carrier and applied as a single product to test area.

COc1c(Cl)ccc(Cl)c1C(=O)O [Dicamba, dicamba, reference compound]
% Control Component B: 29%
